Source: patent US8394969B2, “Cyclic benzimidazole derivatives useful as anti-diabetic agents” (Merck Sharp & Dohme Corp., priority 2008, dated 2013)
pEC50: −log10 of the molar value. Where a name gives a salt, the structure may show the parent alone.

What follows are compounds tested against recombinant human AMPK complex 1 (containing α1β1γ1) (Homo sapiens, UniProt Q13131+Q9Y478) (assay: […] (in vitro AMPK activation assay)). Details: read-out: % Maximum AMP Activation of human AMPK Complex 1, recombinant human AMPK complex 1 (α1β1γ1); basal activity subtracted.
Assay type: biochemical

Chain of recombinant human AMPK complex 1 (containing α1β1γ1) (Q13131 whole entry): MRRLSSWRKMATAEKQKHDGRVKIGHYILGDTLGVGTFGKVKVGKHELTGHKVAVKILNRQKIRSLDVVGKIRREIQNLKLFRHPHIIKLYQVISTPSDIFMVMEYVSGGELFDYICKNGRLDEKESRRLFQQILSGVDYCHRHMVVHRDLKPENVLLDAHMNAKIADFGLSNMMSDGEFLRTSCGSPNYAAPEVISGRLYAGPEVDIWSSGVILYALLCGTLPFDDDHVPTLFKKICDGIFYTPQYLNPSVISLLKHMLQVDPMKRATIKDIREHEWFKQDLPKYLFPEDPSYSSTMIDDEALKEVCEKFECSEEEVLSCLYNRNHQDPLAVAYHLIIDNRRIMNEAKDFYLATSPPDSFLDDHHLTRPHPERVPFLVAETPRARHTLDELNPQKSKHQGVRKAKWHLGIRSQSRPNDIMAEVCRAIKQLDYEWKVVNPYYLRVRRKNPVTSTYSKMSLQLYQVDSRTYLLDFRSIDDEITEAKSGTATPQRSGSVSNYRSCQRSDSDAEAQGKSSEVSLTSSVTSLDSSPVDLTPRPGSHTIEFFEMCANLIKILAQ
Chain of recombinant human AMPK complex 1 (containing α1β1γ1) (Q9Y478 whole entry): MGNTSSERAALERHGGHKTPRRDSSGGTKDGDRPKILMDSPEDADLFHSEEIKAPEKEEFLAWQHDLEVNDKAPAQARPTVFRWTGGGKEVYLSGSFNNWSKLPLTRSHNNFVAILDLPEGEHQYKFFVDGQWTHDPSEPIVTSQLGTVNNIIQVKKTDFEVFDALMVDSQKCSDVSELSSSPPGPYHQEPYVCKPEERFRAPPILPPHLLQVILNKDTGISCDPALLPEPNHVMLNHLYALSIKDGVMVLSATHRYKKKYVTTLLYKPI
Chain of recombinant human AMPK complex 1 (containing α1β1γ1) (P54619 whole entry partner): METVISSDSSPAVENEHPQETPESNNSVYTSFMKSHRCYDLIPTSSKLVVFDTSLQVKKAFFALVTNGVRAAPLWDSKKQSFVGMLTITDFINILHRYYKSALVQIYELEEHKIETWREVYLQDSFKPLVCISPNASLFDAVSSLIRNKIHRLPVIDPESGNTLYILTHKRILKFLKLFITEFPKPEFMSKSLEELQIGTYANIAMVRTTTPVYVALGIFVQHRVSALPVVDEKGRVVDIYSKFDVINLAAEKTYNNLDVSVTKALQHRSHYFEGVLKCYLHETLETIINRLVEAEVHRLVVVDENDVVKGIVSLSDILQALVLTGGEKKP

Structure (SMILES) | Emax
Cc1ccc(Oc2nc3cc(-c4ccccc4C(C)C)c(Cl)cc3[nH]2)cc1C(=O)O [Example 329, Ammonium 5-{[6-chloro-5-(2-isopropylphenyl)-1H-benzimidazol-2-yl]oxy}-2-methylbenzoate] | > 80%

Same assay, conditions: recombinant human AMPK complex 1 (α1β1γ1); basal activity subtracted; read-out: % Maximum AMP Activation of human AMPK Complex 1

Structure (SMILES) | Emax
O=C(O)C1(c2ccc(Oc3nc4cc(-c5ccc(-c6ccccc6)cc5)c(Cl)cc4[nH]3)cc2)CC1 [Example 7, 1-[4-(5-Biphenyl-4-yl-6-chloro-1H-benzoimidazol-2-yloxy)-phenyl]-cyclopropanecarboxylic acid] | > 80%
Cc1ccc(Oc2nc3cc(-c4ccc(N5CCNCC5)nc4)c(Cl)cc3[nH]2)cc1C(=O)O [Example 174, 5-[6-Chloro-5-(6-piperazin-1-yl-pyridin-3-yl)-1H-benzoimidazol-2-yloxy]-2-methyl-benzoic acid] | > 80%
Cc1ccc(Oc2nc3cc(-c4cnc5c(ccn5C)c4)c(Cl)cc3[nH]2)cc1C(=O)O [Example 144, 2-(3-carboxy-4-methylphenoxy)-6-chloro-5-(1-methyl-1H-pyrrolo[2,3-b]pyridin-5-yl)-1H-3,1-benzimidazol-3-ium chloride] | > 80%
O=C(O)c1ccc(Oc2nc3cc(-c4ccc(-c5ccccc5)cc4)c(Cl)cc3[nH]2)cc1O [Example 32, 4-(5-Biphenyl-4-yl-6-chloro-1H-benzoimidazol-2-yloxy)-2-hydroxy-benzoic acid] | > 80%
Cc1ccc(Oc2nc3cc(-c4ccc(C(C)(C)C#N)cc4)c(Cl)cc3[nH]2)cc1C(=O)O [Example 239, 5-{6-Chloro-5-[4-(cyano-dimethyl-methyl)-phenyl]-1H-benzoimidazol-2-yloxy}-2-methyl-benzoic acid] | > 80%
Cc1ccc(Oc2nc3cc(C#Cc4ccc(-c5cc[nH]n5)cc4)c(Cl)cc3[nH]2)cc1C(=O)O [Example 74, 5-{6-Chloro-5-[4-(1H-pyrazol-3-yl)-phenylethynyl]-1H-benzoimidazol-2-yloxy}-2-methyl-benzoic acid] | > 80%
Cc1ccc(Oc2nc3cc(-c4cccc(CO)n4)c(Cl)cc3[nH]2)cc1C(=O)O [Example 332, 2-(3-carboxy-4-methylphenoxy)-6-chloro-5-[6-(hydroxymethyl)pyridin-2-yl]-1H-3,1-benzimidazol-3-ium formate] | > 80%
Cc1ccc(Oc2nc3cc(-c4ccc(C(=O)O)c5c4c(C)cn5C)c(Cl)cc3[nH]2)cc1C(=O)O [Example 270, 4-[2-(3-Carboxy-4-methyl-phenoxy)-6-chloro-1H-benzoimidazol-5-yl]-1,3-dimethyl-1H-indole-7-carboxylic acid] | > 80%
Cc1ccc(Oc2nc3cc(-c4ccc5c(c4)cc(C(=O)O)n5C)c(Cl)cc3[nH]2)cc1C(=O)O [Example 275, 5-[2-(3-Carboxy-4-methyl-phenoxy)-6-chloro-1H-benzoimidazol-5-yl]-1-methyl-1H-indole-2-carboxylic acid] | > 80%
Cc1ccc(Oc2nc3cc(-c4ccc(-n5cccn5)cc4)c(Cl)cc3[nH]2)cc1C(=O)O [Example 58, 5-[6-Chloro-5-(4-pyrazol-1-yl-phenyl)-1H-benzoimidazol-2-yloxy]-2-methyl-benzoic acid] | > 80%
O=C(O)Cc1cc(O)cc(Oc2nc3cc(-c4ccc(-c5ccccc5)cc4)c(Cl)cc3[nH]2)c1 [Example 21, [3-(5-Biphenyl-4-yl-6-chloro-1H-benzoimidazol-2-yloxy)-5-hydroxy-phenyl]-acetic acid] | > 80%
COC(=O)c1cc(Oc2nc3cc(C#Cc4ccccc4F)c(Cl)cc3[nH]2)ccc1C [Example 119, 5-[6-Chloro-5-(2-fluoro-phenylethynyl)-1H-benzoimidazol-2-yloxy]-2-methyl-benzoic acid methyl ester] | > 80%
Cc1ccc(Oc2nc3cc(C#Cc4ccc(-c5nn[nH]n5)cc4)c(Cl)cc3[nH]2)cc1C(=O)O [Example 79, 5-{6-Chloro-5-[4-(2H-tetrazol-5-yl)-phenylethynyl]-1H-benzimidazol-2-yloxy}-2-methyl-benzoic acid] | > 80%
Cc1ccc(Oc2nc3cc(C#Cc4ccc(-c5cscn5)cc4)c(Cl)cc3[nH]2)cc1C(=O)O [Example 83, 5-[6-Chloro-5-(4-thiazol-4-yl-phenylethynyl)-1H-benzoimidazol-2-yloxy]-2-methyl-benzoic acid] | > 80%
O=C(O)c1ccc(Cl)c(Oc2nc3cc(-c4ccc(-c5ccccc5)cc4)c(Cl)cc3[nH]2)c1 [Example 210, 3-(5-Biphenyl-4-yl-6-chloro-1H-benzoimidazol-2-yloxy)-4-chloro-benzoic acid] | > 80%
Cc1ccc(Oc2nc3cc(C#Cc4ccc(-c5ncc[nH]5)cc4)c(Cl)cc3[nH]2)cc1C(=O)O [Example 73, 5-{6-Chloro-5-[4-(1H-imidazol-2-yl)-phenylethynyl]1H-benzoimidazol-2-yloxy}-2-methyl-benzoic acid] | > 80%
COc1ccc2cc(-c3cc4nc(Oc5ccc(C)c(C(=O)O)c5)[nH]c4cc3Cl)ccc2n1 [Example 146, 5-[6-Chloro-5-(2-methoxy-quinolin-6-yl)-1H-benzoimidazol-2-yloxy]-2-methyl-benzoic acid] | > 80%

Structure (SMILES) | Emax
Cc1ccc(Oc2nc3cc(-c4ccc5c(c4)c4c(n5C)CCC4)c(Cl)cc3[nH]2)cc1C(=O)O [Example 281, 5-[6-Chloro-5-(4-methyl-1,2,3,4-tetrahydro-cyclopenta[b]indol-7-yl)-1H-benzoimidazol-2-yloxy]-2-methyl-benzoic acid] | > 80%
Cc1ccc(Oc2nc3cc(-c4ccc5[nH]cnc5c4)c(Cl)cc3[nH]2)cc1C(=O)O [Example 140, 2-(3-Carboxy-4-methyl-phenoxy)-6-chloro-1H,1′H-[5,5′]bibenzoimidazolyl-3-ium; chloride] | > 80%
Cc1ccc(Oc2nc3cc(-c4ccc5ncccc5c4)c(Cl)cc3[nH]2)cc1C(=O)O [Example 150, 2-(3-carboxy-4-methylphenoxy)-6-chloro-5-quinolin-6-yl-1H-3,1-benzimidazol-3-ium chloride] | > 80%
Cc1ccc(Oc2nc3cc(C#Cc4ccc(-c5nccs5)cc4)c(Cl)cc3[nH]2)cc1C(=O)O [Example 84, 5-[6-Chloro-5-(4-thiazol-2-yl-phenylethynyl)-1H-benzoimidazol-2-yloxy]-2-methyl-benzoic acid] | > 80%
CCOC(=O)Cc1ccc(Oc2nc3cc(-c4ccc(-c5ccccc5)cc4)c(Cl)cc3[nH]2)cc1C(=O)OCC [Example 9, 5-(5-Biphenyl-4-yl-6-chloro-1H-benzoimidazol-2-yloxy)-2-ethoxycarbonylmethyl-benzoic acid ethyl ester] | > 80%
Cc1ccc(Oc2nc3cc(-c4ccc5[nH]cc(C)c5c4)c(Cl)cc3[nH]2)cc1C(=O)O [Example 287, 5-[6-Chloro-5-(3-methyl-1H-indol-5-yl)-1H-benzoimidazol-2-yloxy]-2-methyl-benzoic acid] | > 80%
Cc1ccc(Oc2nc3cc(-c4ccc(N(C)C)c(F)c4)c(Cl)cc3[nH]2)cc1C(=O)O [Example 296, 2-(3-carboxy-4-methylphenoxy)-6-chloro-5-[4-(dimethylamino)-3-fluorophenyl]-1H-3,1-benzimidazol-3-ium chloride] | > 80%
Cc1ccc(Oc2nc3cc(-c4ccc(-c5cn[nH]c5)cc4)c(Cl)cc3[nH]2)cc1C(=O)O [Example 202, 5-({6-chloro-5-[4-(1H-pyrazol-4-yl)phenyl]-1H-benzimidazol-2-yl}oxy)-2-methylbenzoic acid] | > 80%
Cc1ccc(Oc2nc3cc(C#Cc4ccc(-c5cnco5)cc4)c(Cl)cc3[nH]2)cc1C(=O)O [Example 120, 5-[6-Chloro-5-(4-oxazol-5-yl-phenylethynyl)-1H-benzoimidazol-2-yloxy]-2-methyl-benzoic acid] | > 80%
Cc1ccc(Oc2nc3cc(-c4ccc5c(c4)c(C)cn5C)c(Cl)cc3[nH]2)cc1C(=O)O [Example 288, 5-[6-Chloro-5-(1,3-dimethyl-1H-indol-5-yl)-1H-benzoimidazol-2-yloxy]-2-methyl-benzoic acid] | > 80%
Cc1ccc(Oc2nc3cc(C#Cc4ccc(-c5ccccn5)cc4)c(Cl)cc3[nH]2)cc1C(=O)O [Example 90, 5-[6-Chloro-5-(4-pyridin-2-yl-phenylethynyl)-1H-benzoimidazol-2-yloxy]-2-methyl-benzoic acid] | > 80%
O=C(O)c1cc(O)cc(Oc2nc3cc(-c4ccc(-c5ccccc5)cc4)c(Cl)cc3[nH]2)c1 [Example 35, 3-(5-Biphenyl-4-yl-6-chloro-1H-benzoimidazol-2-yloxy)-5-hydroxy-benzoic acid] | > 80%
Cc1cc(Oc2nc3cc(-c4ccc5c(ccn5C)c4)c(Cl)cc3[nH]2)cc(C(=O)O)c1C [Example 311, 5-[6-Chloro-5-(1-methyl-1H-indol-5-yl)-1H-benzoimidazol-2-yloxy]-2,3-dimethyl-benzoic acid] | > 80%
N#Cc1ccc(Oc2nc3cc(-c4ccc(-c5ccccc5)cc4)c(Cl)cc3[nH]2)cc1C#N [Example 101, 4-(5-Biphenyl-4-yl-6-chloro-1H-benzoimidazol-2-yloxy)-phthalonitrile] | > 80%
Cc1ccc(Oc2nc3cc(-c4ccc5c(c4)CCN5C(C)C)c(Cl)cc3[nH]2)cc1C(=O)O [Example 279, 5-[6-Chloro-5-(1-isopropyl-2,3-dihydro-1H-indol-5-yl)-1H-benzoimidazol-2-yloxy]-2-methyl-benzoic acid] | > 80%
O=C(O)C(O)c1ccc(Oc2nc3cc(-c4ccc(-c5ccccc5)cc4)c(Cl)cc3[nH]2)cc1 (stereo not drawn) [Example 20, [4-(5-Biphenyl-4-yl-6-chloro-1H-benzoimidazol-2-yloxy)-phenyl]-hydroxy-acetic acid] | > 80%

Same assay, conditions: recombinant human AMPK complex 1 (α1β1γ1); read-out: EC50

Structure (SMILES) | pEC50
Cc1ccc(Oc2nc3cc(-c4ccc(-c5ccccc5O)cc4)c(F)cc3[nH]2)cc1C(=O)O [Example 232, 5-{[6-fluoro-5-(2′-hydroxybiphenyl-4-yl)-1H-benzimidazol-2-yl]oxy}-2-methylbenzoic acid] | 9.00
Cc1ccc(Oc2nc3cc(-c4ccc(-c5ccncc5)cc4)c(Cl)cc3[nH]2)cc1C(=O)O [Example 168] | 8.30
